Experimental findings from patent US20030004214A1, “Use of rofleponide in the treatment of irritable bowel syndrome (ibs)” (priority 2000, published 2003) are described below.

In data set [1] the target is T1, glucocorticosteroid receptors (Homo sapiens, UniProt P04150).
T1 sequence (P04150 1-777): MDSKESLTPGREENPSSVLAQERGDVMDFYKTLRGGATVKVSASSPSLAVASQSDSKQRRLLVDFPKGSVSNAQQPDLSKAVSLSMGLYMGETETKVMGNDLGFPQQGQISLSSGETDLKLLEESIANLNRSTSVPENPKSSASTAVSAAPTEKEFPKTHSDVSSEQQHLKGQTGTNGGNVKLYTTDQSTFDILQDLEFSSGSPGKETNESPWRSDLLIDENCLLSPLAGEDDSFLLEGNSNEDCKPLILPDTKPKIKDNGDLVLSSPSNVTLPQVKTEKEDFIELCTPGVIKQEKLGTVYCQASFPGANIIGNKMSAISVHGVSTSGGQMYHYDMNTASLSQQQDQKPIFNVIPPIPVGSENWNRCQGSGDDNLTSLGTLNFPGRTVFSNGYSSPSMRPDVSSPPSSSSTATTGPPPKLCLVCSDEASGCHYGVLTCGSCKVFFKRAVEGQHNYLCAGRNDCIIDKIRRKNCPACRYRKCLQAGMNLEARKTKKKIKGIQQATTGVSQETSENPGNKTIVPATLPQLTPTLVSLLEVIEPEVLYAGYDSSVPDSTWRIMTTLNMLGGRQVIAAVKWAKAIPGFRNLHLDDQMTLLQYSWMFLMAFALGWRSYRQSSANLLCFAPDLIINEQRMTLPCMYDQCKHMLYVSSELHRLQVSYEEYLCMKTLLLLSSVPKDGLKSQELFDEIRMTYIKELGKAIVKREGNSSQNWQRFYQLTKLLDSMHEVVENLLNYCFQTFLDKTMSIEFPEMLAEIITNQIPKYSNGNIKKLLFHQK
As to the kind of experiment: affinity for and activity at glucocorticosteroid receptors. Format: binding. As to conditions: compared to other very potent topical steroids.

Data set [2] can be described thus: water solubility for dissolution distribution in intestinal fluids. Format: physicochemical.
Data set [3] concerns cytochrome P450 enzymes. As to the kind of experiment: first pass metabolism / inactivation in the intestinal hepatic region. Format: in vivo. As to conditions: inactivation by cytochrome P450 enzymes in the intestinal hepatic region.
A short description of data set [4]: oral bioavailability. The data set is classed as in vivo.
Data set [5] in a line: treatment of irritable bowel syndrome (IBS). Particulars: in vivo. As for the experimental part:
For testing the effect of rofleponide, its esters and salts in post-infectious irritable bowel syndrome the intestinal neuromuscular dysfunction after acute nematode infection in mice are measured in accordance with the method described in Gasteroenterology 1997, vol. 133, p.1224-1232.

Consider `CCC[C@@H]1O[C@@H]2C[C@H]3[C@@H]4C[C@H](F)C5=CC(=O)CC[C@]5(C)[C@@]4(F)[C@@H](O)C[C@]3(C)[C@]2(C(=O)CO)O1` [rofleponide, (22R)-16-alpha, 17 alpha-butylidenedioxy-6-alpha, 9alpha-difluoro-11beta,21-dihydroxypregn-4-ene-3,20-dione], for which, in data set [1], the “affinity for and activity at glucocorticosteroid receptors” value is listed as “very high”. Further, in data set [2], the water solubility entry is recorded as “sufficient”. In addition, in data set [3], the first pass metabolism entry is “at least 99%”. In data set [4], this molecule showed an oral bioavailability of at most 1%. The “effect in the treatment of irritable bowel syndrome (IBS)” value in data set [5] is reported as “effective”.
